Test results taken from ChEMBL document CHEMBL1127502, “Mixed 5-HT1A/D-2 activity of a new model of arylpiperazines: 1-aryl-4-[3-(1,2-dihydronaphthalen-4-yl)-n-propyl]piperazines. 1. Synthesis and structure-activity relationships” (J Med Chem, 1994).

Tests used:
[1] = target: Serotonin 2 (5-HT2) receptor (Rattus norvegicus, UniProt P30994+P08909+P14842); experiment: Inhibition of binding of radioligand [3H]ketanserin to 5-hydroxytryptamine 2 receptor in rat cerebral cortex; type: tissue-based
[2] = target: T1, 5-hydroxytryptamine receptor 1A (Rattus norvegicus, UniProt P19327); experiment: In vitro ability to inhibit binding of radioligand [3H]8-OH-DPAT to 5-hydroxytryptamine 1A receptor in rat cerebral cortex; type: tissue-based
T1 sequence (P19327 whole entry): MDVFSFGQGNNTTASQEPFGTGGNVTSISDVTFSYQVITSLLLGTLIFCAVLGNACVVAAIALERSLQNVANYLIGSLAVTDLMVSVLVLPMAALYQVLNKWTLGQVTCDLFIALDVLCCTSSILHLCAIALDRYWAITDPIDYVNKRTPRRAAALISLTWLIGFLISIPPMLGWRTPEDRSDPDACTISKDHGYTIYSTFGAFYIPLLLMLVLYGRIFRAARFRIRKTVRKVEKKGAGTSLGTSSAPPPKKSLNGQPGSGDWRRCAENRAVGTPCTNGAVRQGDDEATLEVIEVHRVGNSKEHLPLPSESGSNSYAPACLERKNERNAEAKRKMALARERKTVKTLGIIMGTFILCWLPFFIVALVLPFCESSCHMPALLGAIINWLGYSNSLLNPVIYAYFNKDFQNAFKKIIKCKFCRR

Rattus norvegicus = experiment: Effective dose required to inhibit behavior effects induced by 8-OH-DPAT in reserpinized rats after subcutaneous administration; type: functional; conditions: sc
D(2) dopamine receptor [3] = target: T2, D(2) dopamine receptor (Rattus norvegicus, UniProt P61169); experiment: Inhibition of binding of radioligand [3H]spiroperidol to dopamine D2 receptor in rat striatal membranes; type: cell membranes, Membrane
D(2) dopamine receptor [4] = target: T2, D(2) dopamine receptor; experiment: In vitro ability to inhibit binding of radioligand [3H]spiroperidol to dopamine D2 receptor in rat corpora striata
D(2) dopamine receptor [5] = target: T2, D(2) dopamine receptor; experiment: In vito ability to inhibit binding of radioligand [3H]spiroperidol to dopamine D2 receptor in rat corpora striata
D(2) dopamine receptor [6] = target: T2, D(2) dopamine receptor; experiment: In vitro ability to inhibit binding of radioligand [3H]spiroperidol to dopamine D2 receptor in rat striatal membranes; type: cell membranes, Membrane

T2 sequence (P61169 whole entry): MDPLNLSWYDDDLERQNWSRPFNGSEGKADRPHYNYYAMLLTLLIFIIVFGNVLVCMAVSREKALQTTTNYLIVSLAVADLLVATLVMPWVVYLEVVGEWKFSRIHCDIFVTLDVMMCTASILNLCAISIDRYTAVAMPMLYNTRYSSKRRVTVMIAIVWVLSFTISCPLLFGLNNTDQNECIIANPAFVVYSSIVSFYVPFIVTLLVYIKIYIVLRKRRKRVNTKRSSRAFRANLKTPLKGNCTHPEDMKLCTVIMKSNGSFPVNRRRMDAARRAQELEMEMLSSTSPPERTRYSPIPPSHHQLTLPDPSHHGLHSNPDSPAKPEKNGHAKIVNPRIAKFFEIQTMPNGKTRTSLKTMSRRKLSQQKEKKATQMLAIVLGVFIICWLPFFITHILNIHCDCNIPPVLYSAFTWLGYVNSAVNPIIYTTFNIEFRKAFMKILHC

| SMILES | IC50 [1] [nM] | IC50 [2] [nM] | IC50 (D(2) dopamine receptor [3]) [nM] | Ki [2] [nM] | Ki (D(2) dopamine receptor [4]) [nM] | Ki (D(2) dopamine receptor [5]) [nM] | Ki (D(2) dopamine receptor [6]) [nM] | ED50 (Rattus norvegicus) [mg/kg] |
| --- | --- | --- | --- | --- | --- | --- | --- | --- |
| COc1cccc2c1C(CCCN1CCN(c3cccc(C(F)(F)F)c3)CC1)=CCC2 | 2370 | 55.9 | 644 |  |  |  |  | 24.2 |
| COc1cccc2c1C(CCCN1CCN(c3cccc(Cl)c3)CC1)=CCC2 | 1340 | 31.4 | 484 |  |  |  |  |  |
| COc1ccc2c(c1)CCC=C2CCCN1CCN(c2ccccn2)CC1 | 146 | 63.6 | 778 |  |  |  |  |  |
| COc1ccc2c(c1)CCC=C2CCCN1CCN(c2ccccc2)CC1 | 119 | 147 | 777 |  |  |  |  |  |
| COc1ccc2c(c1)CCC=C2CCCN1CCN(c2cccc(C(F)(F)F)c2)CC1 | 1170 | 138 | 1290 |  |  |  |  |  |
| COc1ccc2c(c1)CCC=C2CCCN1CCN(c2cccc(Cl)c2)CC1 | 133 | 131 | 768 |  |  |  |  |  |
| COc1ccc2c(c1)CCC=C2CCCN1CCNCC1 | > 10000 | > 10000 | > 10000 |  |  |  |  |  |
| COc1ccccc1N1CCN(CCCCN2C(=O)c3ccccc3C2=O)CC1 [NAN-190] |  |  |  |  |  |  | 9.55 |  |

The next lines start with results.

| IC50 [1] [nM] | IC50 [2] [nM] | IC50 (D(2) dopamine receptor [3]) [nM] | Ki [2] [nM] | Ki (D(2) dopamine receptor [4]) [nM] | Ki (D(2) dopamine receptor [5]) [nM] | Ki (D(2) dopamine receptor [6]) [nM] | SMILES | ED50 (Rattus norvegicus) [mg/kg] |
| --- | --- | --- | --- | --- | --- | --- | --- | --- |
| 932 | 161 | 201 |  |  |  |  | COc1ccc2c(c1)CCC=C2CCCN1CCN(c2cc(OC)ccc2OC)CC1 |  |
| 391 | 2 | 90.6 | 1.78 | 22.4 |  |  | COc1ccc2c(c1)CCC=C2CCCN1CCN(c2ccccc2OC)CC1 | 0.76 |
| 770 | 8.8 | 17.4 |  |  |  |  | COc1ccccc1N1CCN(CCCC2=CCCc3cccc(OC)c32)CC1 |  |
| 204 |  | 303 |  |  |  |  | COc1cccc2c1C(CCCN1CCN(c3ccccc3)CC1)=CCC2 |  |
| 205 | 1.4 | 119 | 1.26 |  | 29.5 |  | COc1cccc2c1C(CCCN1CCN(c3ccccn3)CC1)=CCC2 |  |
| 104 | 15.7 | 14.7 |  |  |  |  | COc1ccccc1N1CCN(CCCC2=CCCc3ccccc32)CC1 |  |
